Assay results taken from US8853424B2 (Japan Science and Technology Agency, priority 2008, dated 2014).

How the values were obtained:
transglutaminase (TGase) = assay: Measurement of TG (TGase inhibitory activity, monodansyl cadaverine / N,N-dimethylcasein fluorescence, FDSS 3000); type: biochemical
Method in brief: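 Compound (1 μL of 10 mM stock) added to 0.1 mL reaction: 100 mM HEPES-NaOH pH 7.5, 1 mM CaCl2, 20 μM monodansyl cadaverine, 0.05 mg/mL N,N-dimethylcasein, 5 μg/mL TGase. Rate of fluorescence change at 340 nm measured; DMSO control set to 100; TG50 is the concentration halving activity.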

[1] = test system: Truncated N-terminal huntington 150 Q-EGFP-Neuron 2a cells; assay: Measurement of x-Fold (polyglutamine aggregation inhibitory activity); type: cell-based
Description: In the present invention, the polyglutamine aggregation inhibitory activity (x-Fold) can be measured, for example, by the method described in the Example.
The number of the aggregated cells, and the total number of cells were counted by Array Scan V T1 (manufactured by Cellomics, Pittuburg, USA), and the ratio of the aggregated cells to the total number of cells was determined (x-Fold). […]

[2] = TGase activity with compound (10 mM, 1 μL in 0.1 ml enzyme reaction solution), DMSO control taken as 100
[3] = TGase inhibitory activity value, Table 1
[4] = polyglutamine aggregation inhibitory activity, Table 1
[5] = ratio of aggregated cells to total number of cells, compound 20 μM, 20 hr, almost 1 without compound, smaller = stronger inhibition
[6] = TGase inhibitory activity measurement, unit not given
[7] = polyglutamine aggregation, Truncated N-terminal huntington 150 Q-EGFP-Neuron 2a cells

| SMILES | TGase activity remaining (% of DMSO control = 100) (transglutaminase (TGase); [2]) | TGase activity remaining (% of DMSO control = 100) (transglutaminase (TGase); [3]) | TGase activity remaining (% of DMSO control = 100) (transglutaminase (TGase); [6]) | x-Fold [1, 4] | x-Fold [1, 5] | x-Fold [1, 7] |
| --- | --- | --- | --- | --- | --- | --- |
| OB(c1ccccc1)c1ccccc1CCOCc1ccccc1B(O)c1ccccc1 [Example 368, (2-(phenylhydroxyboryl)phenethyl)((2-phenylhydroxyboryl)benzyl)ether] | 52 | 52 |  | 1.03 | 1.03 |  |
| Cc1ccc(Cl)cc1B(OCC1CCCCN1)c1cc(Cl)ccc1C (centres unmarked) [Example 371] |  | 98 |  | 1.17 |  |  |
| OB(c1ccc(C(F)(F)F)cc1)c1c2ccccc2c(B(O)c2ccc(C(F)(F)F)cc2)c2ccccc12 [Example 374] | 17 | 17 |  | 1.14 | 1.14 |  |
| NCCOB(c1ccc(C(F)(F)F)cc1)c1c2ccccc2c(B(OCCN)c2ccc(C(F)(F)F)cc2)c2ccccc12 [Example 375] | 44 | 44 |  | 1.05 | 1.05 |  |
| NCCOB(c1cccc(COCc2cccc(B(OCCN)c3cccc4ccccc34)c2)c1)c1cccc2ccccc12 [Example 376, bis(3-(1-naphthylaminoethoxyboryl)benzyl)ether] | 75 | 75 |  | 0.93 | 0.93 |  |
| CC(C)(C)c1cc(B(OCCN)c2ccccc2)c2c(c1)C(C)(C)c1cc(C(C)(C)C)cc(B(OCCN)c3ccccc3)c1O2 [Example 378, 4,5-di(phenylaminoethoxyboryl)-2,7-di-tert-butyl-9,9-dimethylxanthrene] | 88 | 88 |  | 0.79 | 0.79 |  |
| OB(c1ccccc1)c1ccc(COCCOc2ccc(B(O)c3ccccc3)cc2)cc1 [Example 379, (4-(phenylhydroxyboryl)phenoxyethyl)(4-(phenylhydroxyboryl)benzyl)ether] | 92 | 92 |  | 0.74 | 0.74 |  |
| NCCOB(c1ccccc1)c1ccc(COCCOc2ccc(B(OCCN)c3ccccc3)cc2)cc1 [Example 380, (4-(phenylaminoethoxyboryl)phenoxyethyl)(4-(phenylaminoethoxyboryl)benzyl)ether] | 92 | 92 |  | 0.67 | 0.67 |  |
| OB(c1ccccc1)c1cccc(-c2cccc(B(O)c3ccccc3)n2)n1 [Example 381, 6,6′-(phenylhydroxyboryl)-2,2′-dipyridyl] | 55 | 55 |  | 0.80 | 0.80 |  |
| NCCOB(c1ccccc1)c1cccc(-c2cccc(B(OCCN)c3ccccc3)n2)n1 [Example 382, 6,6′-(phenylaminoethoxyboryl)-2,2′-dipyridyl] | 76 | 76 |  | 0.80 | 0.80 |  |
| OB(c1ccccc1)c1ccc(B(O)c2ccccc2)o1 [Example 383, bis(2,5-(phenylhydroxyboryl))furan] | 103 | 103 |  | 0.92 | 0.92 |  |
| NCCOB(c1ccccc1)c1ccc(B(OCCN)c2ccccc2)o1 [Example 384, bis(2,5-(phenylaminoethoxyboryl))furan] | 60 | 60 |  | 1.05 | 1.05 |  |
| OB(c1ccc(COCc2ccc(B(O)c3ccc(C(F)(F)F)cc3)cc2)cc1)c1ccc(C(F)(F)F)cc1 [Example 407, bis(4,4′-(p-trifluoromethylphenyl-hydroxyboryl)benzyl)ether] | 77 |  |  |  | 1.02 |  |

Further lines, with some results ahead:

| TGase activity remaining (% of DMSO control = 100) (transglutaminase (TGase); [2]) | TGase activity remaining (% of DMSO control = 100) (transglutaminase (TGase); [3]) | TGase activity remaining (% of DMSO control = 100) (transglutaminase (TGase); [6]) | SMILES | x-Fold [1, 4] | x-Fold [1, 5] | x-Fold [1, 7] |
| --- | --- | --- | --- | --- | --- | --- |
| 116 |  |  | CN(C)CCOB(c1ccccc1)c1ccc(Oc2ccc(B(OCCN(C)C)c3ccccc3)cc2)cc1 [Example 385, bis(4,4′-(phenyl-N,N-dimethylaminoethoxyboryl)phenyl)ether] | 1.07 | 0.78 |  |
| 96 | 96 |  | OB(c1ccccc1)c1ccc2sc3ccc(B(O)c4ccccc4)cc3c2c1 [Example 387, 2,8-di(phenylhydroxyboryl)dibenzothiophene] | 0.73 | 0.73 |  |
| 81 | 81 |  | c1cc(B(OCC2CCCN2)c2ccc3sc4ccc(B(OCC5CCCN5)c5ccsc5)cc4c3c2)cs1 (centres unmarked) [Example 389, 2,8-di(3-thiophenyl-2-pyrrolidinomethoxyboryl)dibenzothiophene] | 0.83 | 0.83 |  |
| 56 |  |  | NC(=O)CC(N)C(=O)OB(c1ccccc1)c1ccc(Oc2ccc(B(OC(=O)C(N)CC(N)=O)c3ccccc3)cc2)cc1 (centres unmarked) [Example 390, bis(4,4′-(phenyl-asparagineboryl)phenyl)ether] |  | 0.59 |  |
| 83 | 83 |  | CN(C)CCOB(c1ccccc1)c1ccc(Oc2ccc(B(OCCN(C)C)c3ccc(CO)cc3)cc2)cc1 [Example 392, (4-(phenyl-N,N-dimethylaminoethoxyboryl)phenyl)(4′-(hydroxymethylphenyl-N,N-dimethylaminoethoxyboryl)phenyl)ether] | 0.91 | 0.91 |  |
| 117 |  |  | NC(CCC(=O)O)C(=O)OB(c1ccccc1)c1ccc(Oc2ccc(B(OC(=O)C(N)CCC(=O)O)c3ccc(CO)cc3)cc2)cc1 (centres unmarked) [Example 393, (4-(phenyl-glutamic acid boryl)phenyl)(4′-(hydroxymethylphenyl-glutamic acid boryl)phenyl)ether] |  | 0.56 |  |
| 116 |  |  | CN(C)CCOB(c1ccccc1)c1ccc(Oc2ccc(B(OCCN(C)C)c3ccccc3)cc2)cc1 [Example 395, bis(4,4′-(phenyl-N,N-dimethylaminoethoxyboryl)phenyl)ether] |  | 0.86 |  |
| 70 |  | 70 | NC(CS)C(=O)OB(c1ccccc1)c1ccc(Oc2ccc(B(OC(=O)C(N)CS)c3ccc(CO)cc3)cc2)cc1 (centres unmarked) [Example 397, (4-(phenyl-cysteineboryl)phenyl)(4′-(hydroxymethylphenyl-cysteineboryl)phenyl)ether] |  | 0.59 | 0.59 |
| 53 |  | 53 | NCCNCCOB(c1ccccc1)c1ccc(COCc2ccc(B(OCCNCCN)c3ccccc3)cc2)cc1 [Example 399, bis(4,4′-(phenyl-N-aminoethyl-aminoethoxyboryl)benzyl)ether] |  | 0.96 | 0.96 |
| 52 |  | 52 | CNCCOB(c1ccccc1)c1ccc(COCc2ccc(B(OCCNC)c3ccccc3)cc2)cc1 [Example 400, bis(4,4′-(phenyl-N-methylaminoethoxyboryl)benzyl)ether] |  | 1.01 | 1.01 |
| 121 |  | 121 | CN(C)CCOB(c1ccc(COc2ccc(B(OCCN(C)C)c3ccc(C(F)(F)F)cc3)cc2)cc1)c1ccc(C(F)(F)F)cc1 [Example 401, (4′-trifluoromethylphenyl-N,N-dimethylaminoethoxyboryl)-4-phenyl (4′-trifluoromethylphenyl-N,N-dimethylaminoethoxyborylbenzyl)ether] |  | 0.95 | 0.95 |
| −12 |  | −12 | CNCCOB(c1ccc(COc2ccc(B(OCCNC)c3ccc(C(F)(F)F)cc3)cc2)cc1)c1ccc(C(F)(F)F)cc1 [Example 402, (4′-trifluoromethylphenyl-N-methylaminoethoxyboryl)-4-phenyl(4′-trifluoromethylphenyl-N-methylaminoethoxyboryl-4-benzyl)ether] |  | 0.57 | 0.57 |
| 61 |  | 61 | OB(c1ccsc1)c1ccc2sc3ccc(B(O)c4ccsc4)cc3c2c1 [Example 406, 2,8-di(3-thiophenylhydroxyboryl)dibenzothiophene] |  | 0.85 | 0.85 |
| 108 |  | 108 | NCCOB(c1ccccc1)c1ccc2sc3ccc(B(OCCN)c4ccccc4)cc3c2c1 [Example 408, 2,8-di(phenylaminoethoxyboryl)dibenzothiophene] |  | 0.92 | 0.92 |
| 138 |  | 138 | OB(c1ccc(COCc2ccc(B(O)c3ccc(F)c(F)c3)cc2)cc1)c1ccc(F)c(F)c1 [Example 411, bis(4,4′-(3,4-difluorophenyl-hydroxyboryl)benzyl)ether] |  | 0.90 | 0.90 |
